Cytotoxicity data for 96 compounds are collected here from ChEMBL document CHEMBL3507680, “University of Dundee, Gates Library screen for HepG2 cell viability”.

This series in a line: Human HepG2 cell viability assay in 384 well format. Type of series: toxicity, cell-based. Further details: dose 125 nL, time 70.5 hour; concentration not given beside the values. The note with it: HepG2 cells, read-out: Inhibition.

As for `CC(C)c1cc(N2CCC3(CCN(C)C3)C2)ncn1` (stereo unspecified), the cytotoxicity at 70.5 h amounted to 3.25%. The result for `Cc1cc(C)n(CC(C)NC2CCN(Cc3cccc(O)c3)CC2)n1` (stereo unspecified) reads -7.84%; that for `COc1ccccc1OC1(C(=O)O)CCN(c2ncnc(C)c2C)CC1`, 17.6%. Turning to `COc1cccc(CN2CCCCC2CN2CCOCC2)c1F` (stereo unspecified), the cytotoxicity at 70.5 h is -2.15%. `Cc1ccccc1OCC(=O)N1CCOC2(CNCCOC2)C1` (stereo unspecified): the cytotoxicity at 70.5 h is -5.6%. `Cc1ccccc1OC1CCN(C(=O)c2c[nH]c(=O)[nH]c2=O)CC1`: the cytotoxicity at 70.5 h was -0.618%. Turning to `CCN1CC(CN(C)Cc2nc(-c3ccoc3)oc2C)CC1=O` (stereo unspecified), the cytotoxicity at 70.5 h turned out to be 0.925%.

As for `COCCn1cncc1CN1CCCC(C)(c2ccccc2)C1` (stereo unspecified), the cytotoxicity at 70.5 h amounted to 18%. Regarding `COc1ccc(F)cc1NC(=O)NCC1(C)COC1`, the cytotoxicity at 70.5 h was determined as 0.338%. Regarding `CCC(C)N1CCC(Oc2ccc(C(=O)NCCN(C)C)cc2Cl)CC1` (stereo unspecified), the cytotoxicity at 70.5 h is -5.39%. For `COC[C@@]12CC[C@@H](N3CCOCC3)C[C@H]1CCN(c1ncccc1F)C2`, the cytotoxicity at 70.5 h was -6.47%.

Consider `Cc1cc(CN2CCN(CC3CC3)[C@@H]3CS(=O)(=O)C[C@@H]32)cc(C)c1O`, for which the cytotoxicity at 70.5 h is -2.43%. Regarding `O=c1cc(N2CCCCC2)cnn1CC(O)C(F)(F)F` (stereo unspecified), the cytotoxicity at 70.5 h was -8.52%. In the case of `Cc1ncsc1CCN(C)Cc1ccc(CO)o1`, the cytotoxicity at 70.5 h was -5.5%.

On to `CSCCc1c(-c2ccccc2)ncn1[C@H]1C[C@@H](C(=O)O)N(C)C1`, for which the cytotoxicity at 70.5 h is -13.3%. For the compound `CNc1ncc(CN(C)Cc2cc(O)c3cccc(Cl)c3n2)cn1`, the cytotoxicity at 70.5 h was -15.2%. The result for `CSc1ccccc1CN1C[C@H]2CC[C@@H]1CN(Cc1[nH]cnc1C)C2` reads 17.6%. Take `Cc1cc(C(=O)N2CCC3(CCC(=O)N(CC(N)=O)C3)CC2)ccc1O`: the cytotoxicity at 70.5 h is -14%. For `CS(=O)(=O)NCC1CCN(Cc2cc3ccccc3[nH]c2=O)C1` (stereo unspecified), the cytotoxicity at 70.5 h was -3.86%.

As for `O=C1CC2(CCCC2)CC(=O)N1CCn1cnnc1`, the cytotoxicity at 70.5 h is -8.05%. The result for `COCCN(CC1CCCN(C2Cc3ccccc3C2)C1)C(=O)COC` (stereo unspecified) reads -7.6%. With `Cc1cccc(CC(=O)N2CCCC(N(C)CCCN(C)C)C2)c1` (stereo unspecified), the cytotoxicity at 70.5 h is -4.84%.

In the case of `COCCCNc1ncnc2c1CCN(C(=O)CC1C=CCC1)CC2` (stereo unspecified), the cytotoxicity at 70.5 h was -5.04%. Regarding `Cc1cccn2c(CNC(C)CCc3ccc(O)cc3)cnc12` (stereo unspecified), the cytotoxicity at 70.5 h is -7.78%. In the case of `CC(C)[C@H]1CN(c2ccncc2)C[C@@H]1NC(=O)C1(C#N)CCOCC1`, the cytotoxicity at 70.5 h is -8.3%. Consider `O=C(O)C1(n2ccc(-c3ccco3)n2)CCN(Cc2cccs2)CC1`, for which the cytotoxicity at 70.5 h was 17.7%. The result for `O=C(c1cc(=O)[nH][nH]1)N1CCCC2(CCC(=O)N(C3CCCC3)C2)C1` (stereo unspecified) reads -5.45%; that for `CC(C)c1nccn1CCCNC(=O)c1ccc(-c2cn[nH]c2)nc1`, -3.19%. As to `Cc1cccc(CN2CCN(C(=O)N(C)C)[C@@H]3CS(=O)(=O)C[C@@H]32)n1`, the cytotoxicity at 70.5 h worked out at 2.11%. To `O=C1NC(C(=O)NCc2cccnc2Oc2ccccc2F)CO1` (stereo unspecified) belongs -18.5%; to `Cc1noc(CN(C)CC2CCCN(CCc3ccc(Cl)cc3)C2)n1` (stereo unspecified), -11.4%; to `COCCc1noc(-c2cn(Cc3ccccc3C)nn2)n1`, -4.41%. The result for `CC(C)CC(NC(=O)c1cc(-c2cccn2C)n[nH]1)c1ncnn1C` (stereo unspecified) reads -1.67%; that for `O=C(C1CCC1)N1C[C@@H]2CC[C@H](C1)N(S(=O)(=O)c1ccccc1)C2`, -8.37%; that for `CC(C)NC(=O)Nc1ccc(-c2nc3c([nH]2)CCNC3)cc1`, -15.8%. Consider `CNc1nccc(-c2cn(C)nc2C)n1`, for which the cytotoxicity at 70.5 h amounted to 1.94%. On to `CCOc1cccc(CN(Cc2cnn(C)c2)CC(C)C)c1O`, for which the cytotoxicity at 70.5 h was found to be 7.39%.

On to `O=c1cc(N2CCCC2)cnn1Cc1noc(C2CCCO2)n1` (stereo unspecified), for which the cytotoxicity at 70.5 h worked out at 7.8%.

With `CNS(=O)(=O)c1ccc(CN2CCCN(CC(C)C)CC2)cc1`, the cytotoxicity at 70.5 h was -0.0493%. With `COc1ccc(N2CCN(C[C@@H](C)CO)CC2=O)cc1`, the cytotoxicity at 70.5 h is -4.04%.

`Cc1ccc(NC(=O)[C@H]2C[C@H](C(=O)O)CN(CC3CC3)C2)cn1`: the cytotoxicity at 70.5 h is -21.8%. For `CCNc1ncc(C(=O)NCc2csc(-c3ncccn3)n2)cn1`, the cytotoxicity at 70.5 h came to 3.46%. For the compound `COc1ccc(C(=O)N2C[C@H]3CC[C@@H]2CN(C)C3)cc1Cl`, the cytotoxicity at 70.5 h was 47.4%. For the compound `CN(C)c1nc2c(c(N(C)C)n1)CCN(C(=O)CN1CCC(O)CC1)C2`, the cytotoxicity at 70.5 h is -7.75%. For `Cc1nn(CCO)cc1CN1CCCC1c1nc2c(C)cccc2[nH]1` (stereo unspecified), the cytotoxicity at 70.5 h was -2.76%. With `O=C(c1ccc(-c2cc[nH]n2)cc1)N1CC[C@H](CO)[C@H](O)C1`, the cytotoxicity at 70.5 h stood at 0.543%. To `COc1nc(C)c(C(=O)N2CCc3[nH]nc(Cc4ccccc4)c3C2)s1` belongs -1.57%; to `COCCCN1CC2(CCC1=O)CCN(Cc1cc(C)no1)CC2`, 12.2%; to `Cc1cccc(CN2C[C@@H]3CC[C@H](C2)N(Cc2c(C)noc2C)C3=O)n1`, -3.2%. As to `CN(C)CCNc1ccc(-c2nc(COc3ccccc3)no2)cn1`, the cytotoxicity at 70.5 h was 3.62%. `Cn1c(CO)nnc1CC1CCN(Cc2ccc(C#N)cc2)CC1`: the cytotoxicity at 70.5 h is -1.35%. On to `CC1(C)CNC(=O)c2nc(C3CCCN(C(=O)C4CC4)C3)[nH]c2C1` (stereo unspecified), for which the cytotoxicity at 70.5 h is -7.49%. Consider `Cc1ccc(C(C(=O)N(C)CCc2cn[nH]c2)N(C)C)cc1` (stereo unspecified), for which the cytotoxicity at 70.5 h was -8.45%. The result for `CCc1nccn1CCCNC(=O)CN1CCN(c2ncccn2)CC1` reads -7.13%. With `COC1CCCOC12CCN(C(=O)NCCc1cccs1)CC2` (stereo unspecified), the cytotoxicity at 70.5 h was -0.941%. In the case of `CCC(O)Cn1cc(C2=CCN(Cc3ccc(OC)cc3)CC2)cn1` (stereo unspecified), the cytotoxicity at 70.5 h is -11.9%. On to `CCCc1cc(C(=O)NCCCn2nnc3ccccc32)no1`, for which the cytotoxicity at 70.5 h is -6.64%. Regarding `CCCc1nc(CN(CC)C(=O)c2ccc3ncsc3c2)no1`, the cytotoxicity at 70.5 h was -0.393%. As for `CN1CC2(CCN(C(=O)c3ccc4c(=O)n(C)cnc4c3)CC2)CC1=O`, the cytotoxicity at 70.5 h was -6.3%.

Take `O=C(CCCc1cn[nH]c1)N1C[C@@H](CN2CCCCCC2)[C@@H](CO)C1`: the cytotoxicity at 70.5 h is -6.07%. `COc1cc(OC)nc(N2CCC3(CC2)OCCCC3O)n1` (stereo unspecified): the cytotoxicity at 70.5 h is -5.5%.

Take `Cc1cnc(C(=O)N(C)Cc2nc(-c3ccccn3)no2)cn1`: the cytotoxicity at 70.5 h turned out to be 1.35%. On to `COCc1ncc(-c2nccn2CCS(C)(=O)=O)cn1`, for which the cytotoxicity at 70.5 h was 27.5%.

Turning to `CN(C)C(=O)c1ccc2c(c1)N(C)C(CC(=O)NC(CO)CO)CO2` (stereo unspecified), the cytotoxicity at 70.5 h was -7.74%. `Cc1cc2nc(C(C)C)cc(N(C)CC3CCN(C(C)C)C3)n2n1` (stereo unspecified): the cytotoxicity at 70.5 h was found to be 28%. In the case of `CCC(=O)Nc1cccc(OCC(=O)N[C@@H]2C[C@H]3CC[C@@H]2C3)c1`, the cytotoxicity at 70.5 h was -22.4%. As to `CC(C)Cc1cc(CNC(=O)c2cccc3c2NCCC3)no1`, the cytotoxicity at 70.5 h was -8.61%. Take `CC(C)C1CN(C(=O)c2cc(=O)[nH]c(=O)[nH]2)CCC(=O)N1CC1CC1` (stereo unspecified): the cytotoxicity at 70.5 h is -2.3%. Take `CCCn1ccnc1-c1nccn1CCn1cnnc1`: the cytotoxicity at 70.5 h is -6.38%. To `Cc1nc2c(c(NC(C)c3nnn[nH]3)n1)Cc1ccccc1OC2` (stereo unspecified) belongs -6.63%; to `COCCCC1CCCCN1Cc1cnn(C)c1C1CC1` (stereo unspecified), -2.6%. On to `O=C(Cc1ccc(CO)cc1)N1CCN(CC2CC2)[C@@H]2CS(=O)(=O)C[C@@H]21`, for which the cytotoxicity at 70.5 h was 2.89%. As for `CC(C)(C)N1CC(C(=O)NCc2noc(Cc3ccccc3)n2)CC1=O` (stereo unspecified), the cytotoxicity at 70.5 h is 21.2%. Consider `CN1CCCC(CCC(=O)NCCCn2ncc3ccccc32)C1` (stereo unspecified), for which the cytotoxicity at 70.5 h is 25.3%. Consider `CCN(Cc1noc(C)n1)C(=O)C(c1ccccc1C)N(C)C` (stereo unspecified), for which the cytotoxicity at 70.5 h was -6.06%. `COC(=O)[C@]12CNC[C@H]1CN(Cc1nc(C)c[nH]1)C2`: the cytotoxicity at 70.5 h came out at 8.04%. Turning to `COc1cc(C(=O)N2CC(Oc3ccccc3Cl)C2)ccn1`, the cytotoxicity at 70.5 h was -3.47%. In the case of `O=C1CC[C@H]2CN(Cc3ncc[nH]3)CC[C@H]2N1CC1CCNCC1`, the cytotoxicity at 70.5 h was -1.94%. As for `CSc1ccc(CN(CCO)C(=O)CCNC(C)=O)cc1`, the cytotoxicity at 70.5 h was -14.7%. To `Cc1nnc(N2CC[C@@]3(O)CCNC[C@H]3C2)c2ccccc12` belongs -12.3%; to `Cc1nc2c(c(N(C)Cc3ccccc3-n3cccn3)n1)CCNCC2`, 26.5%. Consider `CCn1cc(CN2CCCCC2CCn2ccnc2C)cc1C#N` (stereo unspecified), for which the cytotoxicity at 70.5 h is -6.87%. Turning to `CCC(C(=O)N(C)Cc1cc(C2CC2)[nH]n1)n1cccn1` (stereo unspecified), the cytotoxicity at 70.5 h is -5.95%. In the case of `COCCN(Cc1c(C)nn(C)c1C)C(=O)C1COc2ccccc2C1` (stereo unspecified), the cytotoxicity at 70.5 h is -1.84%. To `Cn1ncc2c(N3CC(N4CCCCC4)C3)nc(-c3ccncc3)nc21` belongs -12.9%; to `CC(=O)CCC(=O)N1CCC2(CC1)N=C(CCC(C)C)NC2=O`, -0.28%. To `CN(CCc1nc2cc(Cl)ccc2[nH]1)C(=O)c1ncn[nH]1` belongs -9.76%; to `CN(Cc1nccs1)C1CCN(c2cccc(-c3cscn3)c2)CC1`, 10.5%. Regarding `CC(C)c1cc(NCC2(CO)CCCC2)ncn1`, the cytotoxicity at 70.5 h was -10.6%.

Regarding `Cc1ncsc1-c1ccn(CC(=O)Nc2cnn(C)n2)n1`, the cytotoxicity at 70.5 h stood at 45.6%. On to `CNC(=O)CCC(=O)N1CCOC(c2ccc3cc(OC)ccc3c2)C1` (stereo unspecified), for which the cytotoxicity at 70.5 h was -3.11%.

Turning to `N[C@@H]1CC[C@H](C(=O)NCCc2nc(-c3ccccc3)cs2)C1`, the cytotoxicity at 70.5 h was -1.72%. Consider `Cc1nn(-c2ccccc2)c(C)c1-c1ccnc(N2CCCNCC2)n1`, for which the cytotoxicity at 70.5 h is -2.54%.

Take `C1CC(CN2C[C@H]3CC[C@@H]2CN(Cc2nnc(C4CC4)o2)C3)C1`: the cytotoxicity at 70.5 h is -16.7%. For `CCCN1CC2(CCN(c3cc(C4CC4)ncn3)CC2)CC1C(=O)O` (stereo unspecified), the cytotoxicity at 70.5 h is -4.45%. The result for `CCn1ccnc1CN(C)Cc1nc(Cc2ccccc2F)no1` reads 7.48%.
